Source: the NIST ThermoML archive (doi:10.1016/j.fluid.2011.01.021)
Numbers after ± are expanded uncertainties.

Columns and labels:
[1] = refractive index (Na D-line) (dimensionless); details: 298.15 K; 101.33 kPa; Liquid; Standard Abbe refractometry
[2] = 298.15 K; 101.33 kPa; Liquid; Vibrating tube method

CCOS(=O)(=O)[O-].CCn1cc[n+](C)c1 [1-ethyl-3-methylimidazolium ethyl sulfate]
refractive index [1]: 1.4791 ± 0.0007
mass density [2]: 1237.23 ± 0.43 kg/m3
